T1: recombinant P. vivax NMT (Plasmodium vivax, UniProt A5K1A2)
T1 sequence (A5K1A2 1-410): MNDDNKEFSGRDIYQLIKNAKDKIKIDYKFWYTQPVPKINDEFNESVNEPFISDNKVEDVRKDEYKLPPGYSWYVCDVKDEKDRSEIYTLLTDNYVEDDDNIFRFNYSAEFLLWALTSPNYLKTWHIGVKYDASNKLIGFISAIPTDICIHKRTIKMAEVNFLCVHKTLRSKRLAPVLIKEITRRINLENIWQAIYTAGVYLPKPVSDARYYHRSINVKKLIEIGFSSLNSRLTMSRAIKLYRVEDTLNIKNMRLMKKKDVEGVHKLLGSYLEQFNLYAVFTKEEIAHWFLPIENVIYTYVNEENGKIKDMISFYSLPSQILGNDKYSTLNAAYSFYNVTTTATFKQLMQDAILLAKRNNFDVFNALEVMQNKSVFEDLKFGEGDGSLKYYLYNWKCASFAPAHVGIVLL


What was measured:
Solubility = format: physicochemical; details: ethyl ester in position 3 in place of the aliphatic chain
recombinant P. vivax NMT = molecular target: T1, recombinant P. vivax NMT; assay: Fluorogenic NMT enzyme assay, P. vivax NMT; format: biochemical
[1] = substrate: C[C@H](NC(=O)[C@H](CC(=O)O)NC(=O)[C@H](CCCCN)NC(=O)[C@@H]1CCCN1C(=O)[C@H](CCCCN)NC(=O)[C@H](CO)NC(=O)[C@H](CCCCN)NC(=O)[C@H](CC(N)=O)NC(=O)[C@H](CO)NC(=O)CN)C(=O)N[C@@H](CO)C(=O)N[C@@H](CCC(N)=O)C(=O)N[C@@H](CCCNC(=N)N)C(=O)N[C@@H](CCCNC(=N)N)C(=O)N[C@@H](CCCNC(=N)N)C(N)=O; assay: Fluorogenic NMT enzyme assay, P. vivax NMT; format: biochemical, Plasmodium vivax; details: other: peptide substrate for the PvNMT assay, in assay conditions

Molecule	inhibitory activity against PvNMT (in words) (recombinant P. vivax NMT)	other results
CCOC(=O)c1cnc2ccc(OC)cc2c1SCCC#N [Compound 7]		solubility (in words) (Solubility): greatly improved solubility
CCOC(=O)c1c(C)nc2ccccc2c1NCC#N.Cl [Compound 17]	complete loss of activity	
CCCCc1c(C)nc2ccc(OC)cc2c1SCCC#N.Cl [Compound 1, 3-butyl-4-((2-cyanoethyl)thio)-6-methoxy-2-methyl-quinoline]	micromolar IC50	
recombinant P. vivax NMT (Plasmodium vivax Sal-1) (protein) MNDDNKEFSGRDIYQLIKNAKDKIKIDYKFWYTQPVPKINDEFNESVNEPFISDNKVEDVRKDEYKLPPGYSWYVCDVKDEKDRSEIYTLLTDNYVEDDDNIFRFNYSAEFLLWALTSPNYLKTWHIGVKYDASNKLIGFISAIPTDICIHKRTIKMAEVNFLCVHKTLRSKRLAPVLIKEITRRINLENIWQAIYTAGVYLPKPVSDARYYHRSINVKKLIEIGFSSLNSRLTMSRAIKLYRVEDTLNIKNMRLMKKKDVEGVHKLLGSYLEQFNLYAVFTKEEIAHWFLPIENVIYTYVNEENGKIKDMISFYSLPSQILGNDKYSTLNAAYSFYNVTTTATFKQLMQDAILLAKRNNFDVFNALEVMQNKSVFEDLKFGEGDGSLKYYLYNWKCASFAPAHVGIVLL		Km [1]: 5.71 ± 0.6 µM

Reference: PMC3863987 (Journal of medicinal chemistry, 2012)
